One assay concerns the target T1, Interstitial collagenase (Homo sapiens, UniProt P03956).
T1 sequence (P03956 whole entry): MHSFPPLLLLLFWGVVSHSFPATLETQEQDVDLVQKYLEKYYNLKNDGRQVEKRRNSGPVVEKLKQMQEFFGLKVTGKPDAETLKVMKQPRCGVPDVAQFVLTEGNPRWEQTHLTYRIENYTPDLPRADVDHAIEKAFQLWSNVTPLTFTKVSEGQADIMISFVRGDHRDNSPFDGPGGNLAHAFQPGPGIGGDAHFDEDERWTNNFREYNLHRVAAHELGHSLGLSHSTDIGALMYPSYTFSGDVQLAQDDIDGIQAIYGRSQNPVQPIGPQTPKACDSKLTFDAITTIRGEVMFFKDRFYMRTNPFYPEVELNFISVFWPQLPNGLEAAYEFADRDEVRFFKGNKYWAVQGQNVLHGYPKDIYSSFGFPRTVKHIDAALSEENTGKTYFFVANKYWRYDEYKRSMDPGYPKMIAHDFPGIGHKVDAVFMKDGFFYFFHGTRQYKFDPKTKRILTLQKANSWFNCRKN

For assay [1], the target named is 72 kDa type IV collagenase (Homo sapiens, UniProt P08253).
Sequence of 72 kDa type IV collagenase (P08253 whole entry): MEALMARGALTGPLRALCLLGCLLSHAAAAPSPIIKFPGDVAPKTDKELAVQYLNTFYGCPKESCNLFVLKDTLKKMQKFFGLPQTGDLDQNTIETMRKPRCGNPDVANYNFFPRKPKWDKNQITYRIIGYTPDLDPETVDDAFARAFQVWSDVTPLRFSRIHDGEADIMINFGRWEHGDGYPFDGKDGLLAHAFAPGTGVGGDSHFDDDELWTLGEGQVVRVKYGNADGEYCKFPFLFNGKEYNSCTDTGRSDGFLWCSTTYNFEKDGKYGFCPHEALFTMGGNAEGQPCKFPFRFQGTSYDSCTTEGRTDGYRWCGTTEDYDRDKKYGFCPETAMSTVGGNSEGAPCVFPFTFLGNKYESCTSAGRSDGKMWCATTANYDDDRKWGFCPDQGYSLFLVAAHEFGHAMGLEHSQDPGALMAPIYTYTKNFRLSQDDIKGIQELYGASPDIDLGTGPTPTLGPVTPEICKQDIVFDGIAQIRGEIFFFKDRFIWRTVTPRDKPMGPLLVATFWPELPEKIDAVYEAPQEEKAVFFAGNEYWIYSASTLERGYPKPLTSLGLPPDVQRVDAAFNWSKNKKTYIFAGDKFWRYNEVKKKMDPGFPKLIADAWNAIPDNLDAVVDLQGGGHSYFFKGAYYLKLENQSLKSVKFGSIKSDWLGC

In ChEMBL document CHEMBL1128053, “Inhibition of matrix metalloproteinases by N-carboxyalkyl dipeptides: Enhanced potency and selectivity with substituted P1 homophenylalanines” (Bioorg Med Chem Lett, 1995) one finds Ki data, which are given here for 24 compounds.

A word on the Ki: it is the equilibrium dissociation constant of an inhibitor or competing ligand from its target.

Consider `CCCc1ccc(CC[C@H](N[C@H](C)C(=O)O)C(=O)N[C@@H](CC(C)C)C(=O)Nc2ccccc2)cc1`, for which the results for the Ki (at Interstitial collagenase; in assay [1]) were 5900 nM and 3.5 nM, respectively. Take `CC(C)C[C@H](NC(=O)[C@H](CCc1ccc(Cl)cc1)N[C@H](C)C(=O)O)C(=O)Nc1ccccc1`: the values for the Ki (at Interstitial collagenase; in assay [1]) were 2100 nM and 77 nM, respectively. As to `CC(C)C[C@H](NC(=O)[C@H](CCc1ccccc1O)N[C@H](C)C(=O)O)C(=O)Nc1ccccc1`, on Interstitial collagenase, the affinity corresponds to a Ki of 2700 nM. Same read-out and setting: the result for `Cc1ccccc1CC[C@H](N[C@H](C)C(=O)O)C(=O)N[C@@H](CC(C)C)C(=O)Nc1ccccc1` reads greater than 10000 nM. Consider `CC(C)Cc1ccc(CC[C@H](N[C@H](C)C(=O)O)C(=O)N[C@@H](CC(C)C)C(=O)Nc2ccccc2)cc1`, for which the Ki is greater than 10000 nM at Interstitial collagenase and 11 nM in assay [1]. In the case of `Cc1cccc(CC[C@H](N[C@H](C)C(=O)O)C(=O)N[C@@H](CC(C)C)C(=O)Nc2ccccc2)c1`, the affinity on Interstitial collagenase, expressed as Ki, was 1500 nM. This lies in the single-digit micromolar range.

`COc1ccccc1CC[C@H](N[C@H](C)C(=O)O)C(=O)N[C@@H](CC(C)C)C(=O)Nc1ccccc1`: on Interstitial collagenase, the Ki is greater than 10000 nM.

For the compound `CCc1ccc(CC[C@H](N[C@H](C)C(=O)O)C(=O)N[C@@H](CC(C)C)C(=O)Nc2ccccc2)cc1`, the Ki was determined as 2300 nM on Interstitial collagenase and 12 nM in assay [1]. In the same order, the values of `CC(C)C[C@H](NC(=O)[C@H](CCc1ccc(F)cc1)N[C@H](C)C(=O)O)C(=O)Nc1ccccc1` are 870 nM and 220 nM.

In the case of `CC(C)C[C@H](NC(=O)[C@H](CCc1cccc(Cl)c1)N[C@H](C)C(=O)O)C(=O)Nc1ccccc1`, the Ki at Interstitial collagenase was found to be 3300 nM. Take `Cc1cc(C)cc(CC[C@H](N[C@H](C)C(=O)O)C(=O)N[C@@H](CC(C)C)C(=O)Nc2ccccc2)c1`: the Ki at Interstitial collagenase is greater than 10000 nM; in assay [1], 4840 nM. In the same order, the values of `C[C@@H](N[C@@H](CCc1ccccc1)C(=O)N[C@@H](CCCNC(=N)N)C(=O)Nc1ccccc1)C(=O)O` are 470 nM and 210 nM. In the same order, the values of `CC(C)C[C@H](NC(=O)[C@H](CCc1ccc(C(F)(F)F)cc1)N[C@H](C)C(=O)O)C(=O)Nc1ccccc1` are 5100 nM and 110 nM. As to `Cc1ccc(CC[C@H](N[C@H](C)C(=O)O)C(=O)N[C@@H](CC(C)C)C(=O)Nc2ccccc2)cc1C`, the Ki on Interstitial collagenase amounted to 7700 nM; in assay [1], 25 nM. As for `CC(C)C[C@H](NC(=O)[C@H](CCc1ccc(O)cc1)N[C@H](C)C(=O)O)C(=O)Nc1ccccc1`, the Ki on Interstitial collagenase is 1000 nM. That is a single-digit micromolar value. Turning to `CC(C)Cc1cccc(CC[C@H](N[C@H](C)C(=O)O)C(=O)N[C@@H](CC(C)C)C(=O)Nc2ccccc2)c1`, the results for the Ki (at Interstitial collagenase; in assay [1]) were greater than 10000 nM and 6100 nM, respectively. Compound `CC(C)C[C@H](NC(=O)[C@H](CCc1cccc(O)c1)N[C@H](C)C(=O)O)C(=O)Nc1ccccc1` came in with a Ki on Interstitial collagenase of 510 nM. On to `COc1ccc(CC[C@H](N[C@H](C)C(=O)O)C(=O)N[C@@H](CC(C)C)C(=O)Nc2ccccc2)cc1OC`, for which the Ki (on Interstitial collagenase; in assay [1]) was greater than 10000 nM throughout. In the case of `Cc1ccc(CC[C@H](N[C@H](C)C(=O)O)C(=O)N[C@@H](CC(C)C)C(=O)Nc2ccccc2)cc1`, at Interstitial collagenase, the Ki was determined as 1900 nM. As to `CCCc1ccc(CC[C@H](N[C@H](C)C(=O)O)C(=O)N[C@@H](CCCN=C(N)N)C(=O)Nc2ccccc2)cc1`, the figures for the Ki (on Interstitial collagenase; in assay [1]) were 2900 nM and 3 nM, respectively. In the same order, the values of `CC(C)C[C@H](NC(=O)[C@H](CCc1ccc(C(C)C)cc1)N[C@H](C)C(=O)O)C(=O)Nc1ccccc1` are greater than 10000 nM and 130 nM. For the compound `CCCCc1ccc(CC[C@H](N[C@H](C)C(=O)O)C(=O)N[C@@H](CCCNC(=N)N)C(=O)Nc2ccccc2)cc1`, the Ki on Interstitial collagenase was greater than 10000 nM; in assay [1] it was 2.1 nM. With `COc1cccc(CC[C@H](N[C@H](C)C(=O)O)C(=O)N[C@@H](CC(C)C)C(=O)Nc2ccccc2)c1`, the Ki on Interstitial collagenase is greater than 10000 nM. As to `CCOc1ccc(CC[C@H](N[C@H](C)C(=O)O)C(=O)N[C@@H](CCCNC(=N)N)C(=O)Nc2ccccc2)cc1`, the values for the Ki (on Interstitial collagenase; in assay [1]) were 2300 nM and 6.1 nM, respectively.
